Results reported in US6372737B1 (priority 1996, dated 2002).

Legend:
Assay type in all cases: in vivo
Rhizoctonia solani = Rhizoctonia solani test (cotton)/seed treatment; conditions: application rate 75 mg/kg of seed, dry seed dressing, after 8 days
Protocol: The active compounds are applied as dry seed dressing. This is prepared by extending the respective active compound with ground mineral to give a finely pulverulent mixture which ensures uniform distribution on the seed surface.
To dress the seed, the infected seed together with the seed dressing is shaken for 3 minutes in a sealed glass flask.
2×50 corns of seed are sown at a depth of 2 cm into standard soil which is infected with Rhizoctonia solani, and the seeds are cultivated in a greenhouse at a temperature of about 22° C. in seed trays which receive a light regimen of 15 hours per day.
Evaluation is carried out after 8 days. 0% means an efficacy which corresponds to that of the untreated control, while an efficacy of 100% means that no disease is observed.

[1] = system: Erysiphe graminis f.sp. tritici; assay: Erysiphe test (wheat)/curative; conditions: curative, 7 days after inoculation
Protocol: (§1) Solvent: 25 parts by weight of N,N-dimethylacetamide
(§2) Emulsifier: 0.6 part by weight of alkylaryl polyglycol ether
(§3) To produce a suitable preparation of active compound, 1 part by weight of active compound or active compound combination is mixed with the stated amounts of solvent and emulsifier, and the concentrate is diluted with water to the desired concentration.
To test for curative activity, young plants are dusted with spores of Erysiphe graminis f.sp. tritici. 48 hours after the inoculation, the plants are sprayed with the preparation of active compound at the stated application rate.
(§4) The plants are placed in a greenhouse at a temperature of about 20° C. and a relative atmospheric humidity of about 80%, in order to promote the development of mildew pustules.
(§5) Evaluation is carried out 7 days after the inoculation. 0% means an efficacy which corresponds to that of the control, whereas an efficacy of 100% means that no infection is observed.

Sphaerotheca fuliginea = assay: Sphaerotheca test (cucumber)/protective; conditions: Podosphaera fuliginea, 240 h, application rate 2.5 g/ha, protective, 10 days after inoculation, read-out: % efficacy
Protocol: To test for protective activity, young plants are sprayed with the commercial active compound preparation at the stated application rate. After the spray coating has dried on, the plants are inoculated with an aqueous spore suspension of Sphaerotheca fuliginea. The plants then remain in a greenhouse at about 23° C. and about 70% relative atmospheric humidity.
Evaluation is carried out 10 days after the inoculation. 0% means an efficacy corresponding to that of the control, and an efficacy of 100% means that no infection is observed.

Puccinia recondita [2] = assay: Puccinia test (wheat)/curative; conditions: application rate 6.25 g/ha, curative, 10 days after inoculation
Protocol: as §1, §2, §3
(§6) To test for curative activity, young plants are sprayed with a conidia suspension of Puccinia recondita. The plants remain in an incubation cabin at 20° C. and 100% relative atmospheric humidity for 48 hours. The plants are subsequently sprayed with the preparation of active compound at the stated application rate.
The plants are placed in a greenhouse at a temperature of about 20° C. and a relative atmospheric humidity of about 80%, in order to promote the development of rust pustules.
(§7) Evaluation is carried out 10 days after the inoculation. 0% means an efficacy which corresponds to that of the control, whereas an efficacy of 100% means that no infection is observed.

Puccinia recondita [3] = assay: Puccinia test (wheat)/protective; conditions: Puccinia recondita, 240 h, application rate 6.25 g/ha, protective, 10 days after inoculation, read-out: Efficacy in %
Protocol: as §1, §2, §3
(§8) To test for protective activity, young plants are sprayed with the preparation of active compound at the stated application rate. After the spray coating has dried on, the plants are sprayed with a conidia suspension of Puccinia recondita. The plants remain in an incubation cabin at 20° C. and 100% relative atmospheric humidity for 48 hours.
The plants are then placed in a greenhouse at a temperature of about 20° C. and a relative atmospheric humidity of 80%, in order to promote the development of rust pustules.
as §7

Botrytis cinerea = assay: Botrytis test (beans)/protective; conditions: 48 h, application rate 50 g/ha, protective, two days after inoculation, read-out: % efficacy
Protocol: To test for protective activity, young plants are sprayed with the commercial active compound preparation at the stated application rate. After the spray coating has dried on, 2 small pieces of agar covered with Botrytis cinerea are placed on each leaf. The inoculated plants are placed in a darkened chamber at about 20° C. and 100% relative atmospheric humidity.
Two days after the inoculation, the size of the infected spots on the leaves is evaluated. 0% means an efficacy corresponding to that of the control, and an efficacy of 100% means that no infection is observed.

[4] = system: Erysiphe graminis fsp. tritici; assay: Erysiphe test (wheat)/protective; conditions: protective, 7 days after inoculation
Protocol: as §1, §2, §3
To test for protective activity, young plants are sprayed with the preparation of active compound at the stated application rate.
After the spray coating has dried on, the plants are dusted with spores of Erysiphe graminis fsp. tritici.
as §4, §5

Pyrenophora teres = Pyrenophora teres test (barley)/curative; conditions: application rate 6.25 g/ha, curative, 7 days after inoculation
Protocol: as §1, §2, §3
as §6, with “Pyrenophora teres.” for “Puccinia recondita.”
The plants are placed in a greenhouse at a temperature of about 20° C. and a relative atmospheric humidity of about 80%.
as §5

Leptosphaeria nodorum [5] = assay: Leptosphaeria nodorum test (wheat)/curative; conditions: curative, 10 days after inoculation
Protocol: as §1, §2, §3
as §6, with “Leptosphaeria nodorum.” for “Puccinia recondita.”, “hours and” for “hours. The plants”, “then” for “subsequently”
The plants are placed in a greenhouse at a temperature of about 15° C. and a relative atmospheric humidity of about 80%.
as §7

Fusarium nivale = Fusarium nivale test (triticale)/seed treatment; conditions: dry seed dressing, about 3 weeks after sowing
Protocol: About 3 weeks after sowing, the plants are evaluated for symptoms of snow mould.

[6] = system: Erysiphe graminis f.sp. hordei; assay: Erysiphe test (barley)/curative; conditions: curative, 7 days after inoculation
Protocol: as §1, §2, §3
To test for curative activity, young plants are dusted with spores of Erysiphe graminis f.sp. hordei. 48 hours after the inoculation, the plants are sprayed with the preparation of active compound at the stated application rate.
as §4, §5

Phytophthora infestans = assay: whole plant or invertebrate; conditions: Phytophthora infestans, in Solanum lycopersicum, 72 h, read-out: % efficacy
Leptosphaeria nodorum [7] = assay: Leptosphaeria nodorum test (wheat)/protective; conditions: Parastagonospora nodorum, 240 h, application rate 6.25 g/ha, protective, 10 days after inoculation, read-out: Efficacy in %
Protocol: as §1, §2, §3
as §8, with “spore” for “conidia”, “Leptosphaeria nodorum.” for “Puccinia recondita.”, “20EC” for “20° C.”
The plants are placed in a greenhouse at a temperature of about 15° C. and a relative atmospheric humidity of 80%.
as §7

## CON=C(C1=NOCCO1)c1ccccc1Oc1ncnc(Oc2ccccc2Cl)c1F [(I)]
Rhizoctonia solani
  Efficacy in %: 16%
[1]; application rate 6.25 g/ha
  Efficacy in %: 0%
[1]; application rate 25 g/ha
  Efficacy in %: 33%
Sphaerotheca fuliginea
  Emax at 2.5 g/ha: 22%
Puccinia recondita [2]
  Efficacy in %: 67%
Puccinia recondita [3]
  pest or weed control at 6.25 g/ha: 81%
Botrytis cinerea
  Emax at 50 g/ha: 15%
[4]; application rate 6.25 g/ha
  Efficacy in %: 0%
[4]; application rate 12.5 g/ha
  Efficacy in %: 29%
[4]; application rate 25 g/ha
  Efficacy in %: 79%
Pyrenophora teres
  Efficacy in %: 0%
Leptosphaeria nodorum [5]; application rate 6.25 g/ha
  Efficacy in %: 62%
Leptosphaeria nodorum [5]; application rate 12.5 g/ha
  Efficacy in %: 62%
Fusarium nivale; application rate 25 mg/kg of seed
  Efficacy in %: 89%
Fusarium nivale; application rate 75 mg/kg of seed
  Efficacy in %: 93%
[6]; application rate 6.25 g/ha
  Efficacy in %: 0%
[6]; application rate 12.5 g/ha
  Efficacy in %: 33%
[6]; application rate 25 g/ha
  Efficacy in %: 75%
Phytophthora infestans
  Emax at 0.5 g/ha: 9%
  Emax at 1 g/ha: 20%
  Emax at 5 g/ha: 45%
Leptosphaeria nodorum [7]
  pest or weed control at 6.25 g/ha: 25%
